Measurements reported in PubChem BioAssay (NCI).
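Protocol summary: plate cells (96-well), add compound at 5 concentrations, incubate 48 h, interpolate endpoints linearly. TGI: concentration producing complete growth inhibition.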

Assays:
Assay in all cases: inhibition of tumour cell growth, NCI panel, 48 h
MALME-3M melanoma = system: MALME-3M melanoma
NCI-H460 lung = system: NCI-H460 lung
KM12 colon = system: KM12 colon
SNB-75 CNS = system: SNB-75 CNS
XF 498 CNS = system: XF 498 CNS
SNB-78 CNS = system: SNB-78 CNS
DMS 273 small cell lung = system: DMS 273 small cell lung
SK-MEL-28 melanoma = system: SK-MEL-28 melanoma
LOX IMVI melanoma = system: LOX IMVI melanoma
RPMI-8226 leukemia = system: RPMI-8226 leukemia
SK-MEL-2 melanoma = system: SK-MEL-2 melanoma
SF-295 CNS = system: SF-295 CNS
SR leukemia = system: SR leukemia
OVCAR-3 ovarian = system: OVCAR-3 ovarian
EKVX NSCLC = system: EKVX NSCLC
OVCAR-8 ovarian = system: OVCAR-8 ovarian
A498 renal = system: A498 renal
TK-10 renal = system: TK-10 renal
UACC-257 melanoma = system: UACC-257 melanoma
SF-268 CNS = system: SF-268 CNS
HOP-92 NSCLC = system: HOP-92 NSCLC
HCC-2998 colon = system: HCC-2998 colon
HL-60(TB) leukemia = system: HL-60(TB) leukemia
A549 NSCLC = system: A549 NSCLC
UO-31 renal = system: UO-31 renal
OVCAR-5 ovarian = system: OVCAR-5 ovarian
CCRF-CEM leukemia = system: CCRF-CEM leukemia
CAKI-1 renal = system: CAKI-1 renal
LXFL 529 NSCLC = system: LXFL 529 NSCLC
HT29 colon = system: HT29 colon
HOP-18 NSCLC = system: HOP-18 NSCLC
K-562 leukemia = system: K-562 leukemia
HOP-62 NSCLC = system: HOP-62 NSCLC
NCI-H226 lung = system: NCI-H226 lung
NCI-H23 lung = system: NCI-H23 lung
DLD-1 colon = system: DLD-1 colon
SNB-19 CNS = system: SNB-19 CNS
HCT-116 colon = system: HCT-116 colon
RXF 393 renal = system: RXF 393 renal
ACHN renal = system: ACHN renal
COLO 205 colon = system: COLO 205 colon
OVCAR-4 ovarian = system: OVCAR-4 ovarian
HCT-15 colon = system: HCT-15 colon
786-0 renal = system: 786-0 renal
KM20L2 colon = system: KM20L2 colon
SF-539 CNS = system: SF-539 CNS
MOLT-4 leukemia = system: MOLT-4 leukemia
UACC-62 melanoma = system: UACC-62 melanoma
SK-MEL-5 melanoma = system: SK-MEL-5 melanoma
M14 melanoma = system: M14 melanoma
DMS 114 small cell lung = system: DMS 114 small cell lung
IGROV1 ovarian = system: IGROV1 ovarian
M19-MEL melanoma = system: M19-MEL melanoma
SN12C renal = system: SN12C renal
NCI-H522 lung = system: NCI-H522 lung
SW-620 colon = system: SW-620 colon
U251 CNS = system: U251 CNS
SK-OV-3 ovarian = system: SK-OV-3 ovarian

C/C(CC(=O)Nc1ccc(Cl)c(Cl)c1)=N/NC(=O)C[N+](C)(C)C
TGI (MALME-3M melanoma): > 100 µM
TGI (NCI-H460 lung): > 100 µM
TGI (KM12 colon): > 100 µM
TGI (SNB-75 CNS): > 100 µM
TGI (XF 498 CNS): > 100 µM
TGI (SNB-78 CNS): > 100 µM
TGI (DMS 273 small cell lung): > 100 µM
TGI (SK-MEL-28 melanoma): > 100 µM
TGI (LOX IMVI melanoma): 35.5 µM
TGI (RPMI-8226 leukemia): 63.4 µM
TGI (SK-MEL-2 melanoma): > 100 µM
TGI (SF-295 CNS): > 100 µM
TGI (SR leukemia): 43.2 µM
TGI (OVCAR-3 ovarian): > 100 µM
TGI (EKVX NSCLC): > 100 µM
TGI (OVCAR-8 ovarian): > 100 µM
TGI (A498 renal): > 100 µM
TGI (TK-10 renal): > 100 µM
TGI (UACC-257 melanoma): > 100 µM
TGI (SF-268 CNS): > 100 µM
TGI (HOP-92 NSCLC): > 100 µM
TGI (HCC-2998 colon): > 100 µM
TGI (HL-60(TB) leukemia): > 100 µM
TGI (A549 NSCLC): > 100 µM
TGI (UO-31 renal): > 100 µM
TGI (OVCAR-5 ovarian): > 100 µM
TGI (CCRF-CEM leukemia): > 100 µM
TGI (CAKI-1 renal): > 100 µM
TGI (LXFL 529 NSCLC): > 100 µM
TGI (HT29 colon): > 100 µM
TGI (HOP-18 NSCLC): > 100 µM
TGI (K-562 leukemia): > 100 µM
TGI (HOP-62 NSCLC): > 100 µM
TGI (NCI-H226 lung): > 100 µM
TGI (NCI-H23 lung): > 100 µM
TGI (DLD-1 colon): > 100 µM
TGI (SNB-19 CNS): > 100 µM
TGI (HCT-116 colon): > 100 µM
TGI (RXF 393 renal): > 100 µM
TGI (ACHN renal): > 100 µM
TGI (COLO 205 colon): > 100 µM
TGI (OVCAR-4 ovarian): > 100 µM
TGI (HCT-15 colon): > 100 µM
TGI (786-0 renal): > 100 µM
TGI (KM20L2 colon): > 100 µM
TGI (SF-539 CNS): > 100 µM
TGI (MOLT-4 leukemia): > 100 µM
TGI (UACC-62 melanoma): > 100 µM
TGI (SK-MEL-5 melanoma): > 100 µM
TGI (M14 melanoma): > 100 µM
TGI (DMS 114 small cell lung): 55.6 µM
TGI (IGROV1 ovarian): > 100 µM
TGI (M19-MEL melanoma): > 100 µM
TGI (SN12C renal): > 100 µM

CCOC(=O)[C@H]1Nc2ccc(Cl)cc2[C@H]2CCC[C@@H]12
TGI (MALME-3M melanoma): > 100 µM
TGI (NCI-H460 lung): > 100 µM
TGI (KM12 colon): > 100 µM
TGI (SNB-75 CNS): > 100 µM
TGI (XF 498 CNS): > 100 µM
TGI (SNB-78 CNS): > 100 µM
TGI (DMS 273 small cell lung): > 100 µM
TGI (SK-MEL-28 melanoma): > 100 µM
TGI (LOX IMVI melanoma): > 100 µM
TGI (RPMI-8226 leukemia): > 100 µM
TGI (SK-MEL-2 melanoma): > 100 µM
TGI (SF-295 CNS): > 100 µM
TGI (NCI-H522 lung): > 100 µM
TGI (SR leukemia): > 100 µM
TGI (SW-620 colon): > 100 µM
TGI (OVCAR-3 ovarian): > 100 µM
TGI (EKVX NSCLC): > 100 µM
TGI (OVCAR-8 ovarian): > 100 µM
TGI (TK-10 renal): > 100 µM
TGI (UACC-257 melanoma): 62.2 µM
TGI (SF-268 CNS): > 100 µM
TGI (HCC-2998 colon): > 100 µM
TGI (A549 NSCLC): > 100 µM
TGI (UO-31 renal): > 100 µM
TGI (OVCAR-5 ovarian): > 100 µM
TGI (CAKI-1 renal): > 100 µM
TGI (U251 CNS): > 100 µM
TGI (LXFL 529 NSCLC): > 100 µM
TGI (HT29 colon): > 100 µM
TGI (HOP-18 NSCLC): > 100 µM
TGI (K-562 leukemia): > 100 µM
TGI (HOP-62 NSCLC): > 100 µM
TGI (NCI-H226 lung): > 100 µM
TGI (NCI-H23 lung): > 100 µM
TGI (DLD-1 colon): > 100 µM
TGI (SNB-19 CNS): > 100 µM
TGI (HCT-116 colon): > 100 µM
TGI (RXF 393 renal): 64.4 µM
TGI (ACHN renal): > 100 µM
TGI (COLO 205 colon): > 100 µM
TGI (OVCAR-4 ovarian): > 100 µM
TGI (HCT-15 colon): > 100 µM
TGI (786-0 renal): > 100 µM
TGI (KM20L2 colon): > 100 µM
TGI (SF-539 CNS): > 100 µM
TGI (MOLT-4 leukemia): > 100 µM
TGI (UACC-62 melanoma): > 100 µM
TGI (SK-MEL-5 melanoma): > 100 µM
TGI (M14 melanoma): > 100 µM
TGI (DMS 114 small cell lung): > 100 µM
TGI (IGROV1 ovarian): > 100 µM
TGI (M19-MEL melanoma): > 100 µM
TGI (SN12C renal): > 100 µM

Cc1cccc(C)c1NC(=O)C(=O)C(C#N)c1ccccc1 (stereo not drawn)
TGI (MALME-3M melanoma): > 100 µM
TGI (NCI-H460 lung): > 100 µM
TGI (KM12 colon): > 100 µM
TGI (SNB-75 CNS): > 100 µM
TGI (XF 498 CNS): > 100 µM
TGI (SNB-78 CNS): > 100 µM
TGI (DMS 273 small cell lung): > 100 µM
TGI (SK-MEL-28 melanoma): > 100 µM
TGI (LOX IMVI melanoma): > 100 µM
TGI (SK-MEL-2 melanoma): > 100 µM
TGI (SF-295 CNS): > 100 µM
TGI (NCI-H522 lung): > 100 µM
TGI (SW-620 colon): > 100 µM
TGI (OVCAR-3 ovarian): > 100 µM
TGI (EKVX NSCLC): > 100 µM
TGI (OVCAR-8 ovarian): > 100 µM
TGI (A498 renal): > 100 µM
TGI (TK-10 renal): > 100 µM
TGI (UACC-257 melanoma): > 100 µM
TGI (SF-268 CNS): > 100 µM
TGI (HOP-92 NSCLC): > 100 µM
TGI (HCC-2998 colon): > 100 µM
TGI (HL-60(TB) leukemia): > 100 µM
TGI (A549 NSCLC): > 100 µM
TGI (UO-31 renal): > 100 µM
TGI (OVCAR-5 ovarian): > 100 µM
TGI (CCRF-CEM leukemia): > 100 µM
TGI (CAKI-1 renal): > 100 µM
TGI (U251 CNS): > 100 µM
TGI (LXFL 529 NSCLC): > 100 µM
TGI (HT29 colon): > 100 µM
TGI (HOP-18 NSCLC): > 100 µM
TGI (K-562 leukemia): > 100 µM
TGI (HOP-62 NSCLC): > 100 µM
TGI (NCI-H226 lung): > 100 µM
TGI (NCI-H23 lung): > 100 µM
TGI (DLD-1 colon): > 100 µM
TGI (SNB-19 CNS): > 100 µM
TGI (HCT-116 colon): > 100 µM
TGI (RXF 393 renal): > 100 µM
TGI (SK-OV-3 ovarian): > 100 µM
TGI (ACHN renal): > 100 µM
TGI (COLO 205 colon): > 100 µM
TGI (OVCAR-4 ovarian): > 100 µM
TGI (HCT-15 colon): > 100 µM
TGI (786-0 renal): > 100 µM
TGI (KM20L2 colon): > 100 µM
TGI (SF-539 CNS): > 100 µM
TGI (MOLT-4 leukemia): > 100 µM
TGI (UACC-62 melanoma): > 100 µM
TGI (SK-MEL-5 melanoma): > 100 µM
TGI (M14 melanoma): > 100 µM
TGI (DMS 114 small cell lung): > 100 µM
TGI (IGROV1 ovarian): > 100 µM
TGI (M19-MEL melanoma): > 100 µM
TGI (SN12C renal): > 100 µM
